Measurements taken from PMC2760403 (The Journal of organic chemistry, 2009).

Key:
Type in all cases: biochemical
[1] = biological target: E. coli Riboflavin Synthase (Escherichia coli, UniProt P0AFU8); assay: Riboflavin synthase kinetic inhibition assay; settings: recombinant E. coli RS; for kcat (rate constant ES → E + P): fit of the compound's data set; for kcat (rate constant ES → E + P) / Kis (inhibitor dissociation constant, ES + I ⇌ ESI): pH 7.0
[2] = biological target: M. tuberculosis Riboflavin Synthase (Mycobacterium tuberculosis, UniProt P9WK35); assay: Riboflavin synthase kinetic inhibition assay; settings: recombinant M. tuberculosis RS; for kcat (rate constant ES → E + P): fit of the compound's data set; for kcat (rate constant ES → E + P) / Kis (inhibitor dissociation constant, ES + I ⇌ ESI): pH 7.0
[3] = biological target: T1, S. pombe Lumazine Synthase (Schizosaccharomyces pombe, UniProt Q9UUB1); assay: Lumazine synthase kinetic inhibition assay; settings: recombinant S. pombe LS; for kcat (rate constant ES → E + P): fit of the compound's data set; for kcat (rate constant ES → E + P) / Kis (inhibitor dissociation constant, ES + I ⇌ ESI): pH 7.0; for Kis (inhibitor dissociation constant, ES + I ⇌ ESI): substrate 1 varied, 2 constant
T1 sequence (Q9UUB1 1-159): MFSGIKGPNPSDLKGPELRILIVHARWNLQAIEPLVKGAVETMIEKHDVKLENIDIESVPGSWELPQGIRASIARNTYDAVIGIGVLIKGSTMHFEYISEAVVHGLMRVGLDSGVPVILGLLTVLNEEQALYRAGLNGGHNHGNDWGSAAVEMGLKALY

[4] = biological target: M. tuberculosis Lumazine Synthase (Mycobacterium tuberculosis, UniProt P9WHE9); settings: recombinant M. tuberculosis LS; for kcat (rate constant ES → E + P): fit of the compound's data set; for kcat (rate constant ES → E + P) / Kis (inhibitor dissociation constant, ES + I ⇌ ESI): pH 7.0; for Kis (inhibitor dissociation constant, ES + I ⇌ ESI): substrate 1 varied, 2 constant
Chain of M. tuberculosis Lumazine Synthase (P9WHE9 whole entry): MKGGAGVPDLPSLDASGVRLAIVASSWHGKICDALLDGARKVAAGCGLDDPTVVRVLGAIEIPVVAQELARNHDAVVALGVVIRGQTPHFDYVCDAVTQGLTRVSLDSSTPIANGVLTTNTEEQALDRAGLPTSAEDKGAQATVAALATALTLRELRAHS

Chain of E. coli Riboflavin Synthase (P0AFU8 whole entry): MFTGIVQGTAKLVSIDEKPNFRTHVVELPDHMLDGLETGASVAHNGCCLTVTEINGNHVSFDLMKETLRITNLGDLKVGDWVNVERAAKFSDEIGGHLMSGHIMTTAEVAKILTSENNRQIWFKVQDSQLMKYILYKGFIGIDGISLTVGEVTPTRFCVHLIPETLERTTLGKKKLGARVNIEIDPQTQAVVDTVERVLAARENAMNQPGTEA
Chain of M. tuberculosis Riboflavin Synthase (P9WK35 whole entry): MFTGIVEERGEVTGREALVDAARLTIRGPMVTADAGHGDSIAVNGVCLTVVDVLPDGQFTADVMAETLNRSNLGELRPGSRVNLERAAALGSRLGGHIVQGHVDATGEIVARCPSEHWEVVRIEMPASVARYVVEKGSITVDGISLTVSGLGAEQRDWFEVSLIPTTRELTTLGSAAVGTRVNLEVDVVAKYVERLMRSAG

Compound: 5-Amino-(2-hydroxy-2-phenethyl)pyrimidine-2,4-(1H,3H)-dione [Compound 50]
- Mode of inhibition [1]: Uncompetitive
- kcat (rate constant ES → E + P) [1]: 0.07 ± 0.0017 s⁻¹
- Kis (inhibitor dissociation constant, ES + I ⇌ ESI) [1]: 788 ± 148 µM

Compound: O=c1[nH]c(/C=C/c2ccccc2O)c([N+](=O)[O-])c(=O)[nH]1 [Compound 9, (E)-5-Nitro-6-(2-hydroxystyryl)pyrimidine-2,4(1H,3H)-dione]
- Mode of inhibition [2]: Uncompetitive
- kcat (rate constant ES → E + P) [2]: 0.0683 ± 0.0033 s⁻¹
- Kis (inhibitor dissociation constant, ES + I ⇌ ESI) [2]: 917 ± 212 µM
- Mode of inhibition [3]: Competitive
- kcat (rate constant ES → E + P) [3]: 0.023 ± 0.0005 s⁻¹
- Mode of inhibition [4]: Competitive
- kcat (rate constant ES → E + P) [4]: 0.00433 ± 0.00017 s⁻¹

Compound: O=c1[nH]c(/C=C/c2cccc(O)c2)c([N+](=O)[O-])c(=O)[nH]1 [Compound 15, (E)-6-(3-Hydroxystyryl)-5-nitropyrimidine-2,4(1H,3H)-dione]
- Inhibitory activity in words [3]: completely ineffective
- Mode of inhibition [4]: Competitive
- kcat (rate constant ES → E + P) [4]: 0.00383 ± 0.00017 s⁻¹
- Inhibitory activity in words [1]: completely ineffective

Compound: O=c1[nH]c(/C=C/c2ccc(O)cc2)c([N+](=O)[O-])c(=O)[nH]1 [Compound 16, (E)-6-(4-Hydroxystyryl)-5-nitropyrimidine-2,4(1H,3H)-dione]
- Inhibitory activity in words [3]: completely ineffective
- Mode of inhibition [4]: Partial
- kcat (rate constant ES → E + P) [4]: 0.00717 ± 0.00017 s⁻¹
- Kis (inhibitor dissociation constant, ES + I ⇌ ESI) [4]: 17 ± 5 µM
- Inhibitory activity in words [1]: completely ineffective

Compound: O=c1[nH]c(/C=C/c2cccc(O)c2O)c([N+](=O)[O-])c(=O)[nH]1 [Compound 17, (E)-6-(2,3-Dihydroxystyryl)-5-nitropyrimidine-2,4(1H,3H)-dione]
- Mode of inhibition [2]: Partial
- kcat (rate constant ES → E + P) [2]: 0.0045 ± 0.00033 s⁻¹
- Kis (inhibitor dissociation constant, ES + I ⇌ ESI) [2]: 37 ± 16 µM
- Mode of inhibition [3]: Partial
- kcat (rate constant ES → E + P) [3]: 0.0262 ± 0.00033 s⁻¹
- Kis (inhibitor dissociation constant, ES + I ⇌ ESI) [3]: 16 ± 3 µM
- Mode of inhibition [4]: Mixed
- kcat (rate constant ES → E + P) [4]: 0.006 ± 0.00017 s⁻¹
- Kis (inhibitor dissociation constant, ES + I ⇌ ESI) [4]: 81 ± 29 µM
- Mode of inhibition [1]: Mixed
- kcat (rate constant ES → E + P) [1]: 0.085 ± 0.0017 s⁻¹
- Kis (inhibitor dissociation constant, ES + I ⇌ ESI) [1]: 26 ± 4 µM

Compound: O=c1[nH]c(/C=C/c2cc(O)ccc2O)c([N+](=O)[O-])c(=O)[nH]1 [Compound 18, (E)-6-(2,5-Dihydroxystyryl)-5-nitropyrimidine-2,4(1H,3H)-dione]
- Mode of inhibition [2]: Uncompetitive
- kcat (rate constant ES → E + P) [2]: 0.00367 ± 0.00033 s⁻¹
- Kis (inhibitor dissociation constant, ES + I ⇌ ESI) [2]: 398 ± 156 µM
- Mode of inhibition [3]: Uncompetitive
- kcat (rate constant ES → E + P) [3]: 0.0245 ± 0.00067 s⁻¹
- Kis (inhibitor dissociation constant, ES + I ⇌ ESI) [3]: 53 ± 5 µM
- Mode of inhibition [4]: Uncompetitive
- kcat (rate constant ES → E + P) [4]: 0.00283 ± 0.00017 s⁻¹
- Kis (inhibitor dissociation constant, ES + I ⇌ ESI) [4]: 420 ± 168 µM
- Mode of inhibition [1]: Uncompetitive
- kcat (rate constant ES → E + P) [1]: 0.085 ± 0.0017 s⁻¹
- Kis (inhibitor dissociation constant, ES + I ⇌ ESI) [1]: 122 ± 10 µM

Compound: O=c1[nH]c(/C=C/c2ccc(F)cc2)c([N+](=O)[O-])c(=O)[nH]1 [Compound 29, (E)-6-(4-Fluorostyryl)-5-nitropyrimidine-2,4(1H,3H)-dione]
- Mode of inhibition [2]: Mixed
- kcat (rate constant ES → E + P) [2]: 0.00667 ± 0.00017 s⁻¹
- Kis (inhibitor dissociation constant, ES + I ⇌ ESI) [2]: 776 ± 294 µM
- Mode of inhibition [4]: Mixed
- kcat (rate constant ES → E + P) [4]: 0.0065 ± 0.00033 s⁻¹
- Kis (inhibitor dissociation constant, ES + I ⇌ ESI) [4]: 25 ± 8 µM

Compound: O=c1[nH]c(/C=C/c2cc([N+](=O)[O-])ccc2O)c([N+](=O)[O-])c(=O)[nH]1 [Compound 32, (E)-6-(2-Hydroxy-5-nitrostyryl)-5-nitropyrimidine-2,4(1H,3H)-dione]
- Mode of inhibition [2]: Uncompetitive
- kcat (rate constant ES → E + P) [2]: 0.00783 ± 0.00017 s⁻¹
- Kis (inhibitor dissociation constant, ES + I ⇌ ESI) [2]: 800 ± 107 µM
- Mode of inhibition [4]: Competitive
- kcat (rate constant ES → E + P) [4]: 0.0107 ± 0.0005 s⁻¹

Compound: O=c1[nH]c(/C=C/c2ccc([N+](=O)[O-])c(O)c2)c([N+](=O)[O-])c(=O)[nH]1 [Compound 35, (E)-6-(3-Hydroxy-4-nitrostyryl)-5-nitropyrimidine-2,4(1H,3H)-dione]
- Mode of inhibition [3]: Mixed
- kcat (rate constant ES → E + P) [3]: 0.0188 ± 0.00017 s⁻¹
- Kis (inhibitor dissociation constant, ES + I ⇌ ESI) [3]: 497 ± 159 µM
- Mode of inhibition [4]: Competitive
- kcat (rate constant ES → E + P) [4]: 0.00633 ± 0.00017 s⁻¹
- Mode of inhibition [1]: Uncompetitive
- kcat (rate constant ES → E + P) [1]: 0.0717 ± 0.0017 s⁻¹
- Kis (inhibitor dissociation constant, ES + I ⇌ ESI) [1]: 224 ± 22 µM

Compound: O=c1[nH]c(/C=C/c2ccc(O)c([N+](=O)[O-])c2)c([N+](=O)[O-])c(=O)[nH]1 [Compound 36, (E)-6-(4-Hydroxy-3-nitrostyryl)-5-nitropyrimidine-2,4(1H,3H)-dione]
- Mode of inhibition [3]: Uncompetitive
- kcat (rate constant ES → E + P) [3]: 0.022 ± 0.00017 s⁻¹
- Kis (inhibitor dissociation constant, ES + I ⇌ ESI) [3]: 276 ± 16 µM
- Mode of inhibition [4]: Mixed
- kcat (rate constant ES → E + P) [4]: 0.00617 ± 0.00017 s⁻¹
- Kis (inhibitor dissociation constant, ES + I ⇌ ESI) [4]: 461 ± 150 µM

Compound: O=C(O)c1ccc(/C=C/c2[nH]c(=O)[nH]c(=O)c2[N+](=O)[O-])c(O)c1 [Compound 37, (E)-3-Hydroxy-4-(2-(5-nitro-2,6-dioxo-1,2,3,6-tetrahydropyrimidine-4-yl)vinyl)benzoic Acid]
- Mode of inhibition [3]: Mixed
- kcat (rate constant ES → E + P) [3]: 0.0273 ± 0.00033 s⁻¹
- Kis (inhibitor dissociation constant, ES + I ⇌ ESI) [3]: 921 ± 640 µM
- Mode of inhibition [4]: Mixed
- kcat (rate constant ES → E + P) [4]: 0.00667 ± 0.00017 s⁻¹
- Kis (inhibitor dissociation constant, ES + I ⇌ ESI) [4]: 468 ± 113 µM

Compound: COc1cccc(/C=C/c2[nH]c(=O)[nH]c(=O)c2[N+](=O)[O-])c1F [Compound 38, (E)-6-(2-Fluoro-3-methoxystyryl)-5-nitropyrimidine-2,4(1H,3H)-dione]
- Mode of inhibition [3]: Mixed
- kcat (rate constant ES → E + P) [3]: 0.0165 ± 0.00017 s⁻¹
- Kis (inhibitor dissociation constant, ES + I ⇌ ESI) [3]: 390 ± 90 µM
- Mode of inhibition [4]: Mixed
- kcat (rate constant ES → E + P) [4]: 0.00583 ± 0.00017 s⁻¹
- Kis (inhibitor dissociation constant, ES + I ⇌ ESI) [4]: 89 ± 11 µM

Compound: O=c1[nH]c(C=Cc2ccccc2)c([N+](=O)[O-])c(=O)[nH]1 [Compound 39, 5-Nitro-6-styryluracil]
- Mode of inhibition [3]: Competitive
- kcat (rate constant ES → E + P) [3]: 0.0367 ± 0.0017 s⁻¹
- Mode of inhibition [4]: Partial
- Kis (inhibitor dissociation constant, ES + I ⇌ ESI) [4]: 15 ± 4 µM

Compound: O=c1[nH]c(/C=C/c2ccc[nH]2)c([N+](=O)[O-])c(=O)[nH]1 [Compound 40, (E)-5-Nitro-6-[2-(1H-pyrrol-2-yl)vinyl]pyrimidine-2,4(1H,3H)-dione]
- Mode of inhibition [3]: Mixed
- kcat (rate constant ES → E + P) [3]: 0.0173 ± 0.00017 s⁻¹
- Kis (inhibitor dissociation constant, ES + I ⇌ ESI) [3]: 248 ± 67 µM
- Mode of inhibition [4]: Partial
- kcat (rate constant ES → E + P) [4]: 0.00633 ± 0.00017 s⁻¹
- Kis (inhibitor dissociation constant, ES + I ⇌ ESI) [4]: 42 ± 12 µM
- Mode of inhibition [1]: Mixed
- kcat (rate constant ES → E + P) [1]: 0.06 ± 0.0017 s⁻¹
- Kis (inhibitor dissociation constant, ES + I ⇌ ESI) [1]: 806 ± 401 µM

Compound: O=c1[nH]c(/C=C/c2ccc3ccccc3c2)c([N+](=O)[O-])c(=O)[nH]1 [Compound 43, (E)-6-(2-(Naphthalene-2-yl)vinyl)-5-nitropyrimidine-2,4(1H,3H)-dione]
- Mode of inhibition [3]: Mixed
- kcat (rate constant ES → E + P) [3]: 0.043 ± 0.00033 s⁻¹
- Kis (inhibitor dissociation constant, ES + I ⇌ ESI) [3]: 476 ± 89 µM
- Mode of inhibition [4]: Partial
- kcat (rate constant ES → E + P) [4]: 0.00617 ± 0.00017 s⁻¹
- Kis (inhibitor dissociation constant, ES + I ⇌ ESI) [4]: 72 ± 31 µM
- Mode of inhibition [1]: Uncompetitive
- kcat (rate constant ES → E + P) [1]: 0.0553 ± 0.00083 s⁻¹
- Kis (inhibitor dissociation constant, ES + I ⇌ ESI) [1]: 270 ± 32 µM

Compound: O=c1[nH]c(/C=C/C2C=Nc3ccccc32)c([N+](=O)[O-])c(=O)[nH]1 (stereo not drawn) [Compound 44, (E)-6-(2-(3H-Indol-3-yl)vinyl)-5-nitropyrimidine-2,4(1H,3H)-dione]
- Mode of inhibition [3]: Mixed
- kcat (rate constant ES → E + P) [3]: 0.0327 ± 0.00067 s⁻¹
- Kis (inhibitor dissociation constant, ES + I ⇌ ESI) [3]: 376 ± 127 µM
- Mode of inhibition [4]: Mixed
- kcat (rate constant ES → E + P) [4]: 0.00667 ± 0.00017 s⁻¹
- Kis (inhibitor dissociation constant, ES + I ⇌ ESI) [4]: 488 ± 233 µM
- Mode of inhibition [1]: Uncompetitive
- kcat (rate constant ES → E + P) [1]: 0.0567 ± 0.00067 s⁻¹
- Kis (inhibitor dissociation constant, ES + I ⇌ ESI) [1]: 426 ± 64 µM

Compound: O=c1[nH]c(CCc2ccc(O)cc2)c([N+](=O)[O-])c(=O)[nH]1 [Compound 48, 6-(4-Hydroxy-2-phenethyl)-5-nitropyrimidine-2,4(1H,3H)-dione]
- Mode of inhibition [2]: Uncompetitive
- kcat (rate constant ES → E + P) [2]: 0.00567 ± 0.00017 s⁻¹
- Kis (inhibitor dissociation constant, ES + I ⇌ ESI) [2]: 449 ± 45 µM
